Assay [1] has as its target T1, human plasmin (Homo sapiens, UniProt P00747). Nature of the assay: Antiplasmin activity: inhibition of fibrin decomposition. It counts as biochemical. As for the experimental part:
(i) Determination of inhibition activity for fibrin decomposition
An inhibitor sample is dissolved in a 0.18M borate-physiological salt buffer solution (pH=7.4) to make the total volume to 600 μl. To this buffer solution, 200 μl of a 0.2% bovine fibrinogen, 100 μl of a 0.3 casein unit/ml human plasmin solution, and 100 μl of a 50 unit/ml bovine thrombin solution, all dissolved in the above-mentioned buffer, are added at a temperature of 37° C. in a constant temperature bath. Then, the dissolution time of the fibrin mass formed above is determined.

In assay [2] the target is T1, human plasmin. Nature of the assay: biochemical. As for the experimental part: An inhibitor sample is dissolved in a 0.05M Tris-hydrochloric acid buffer solution (pH=7.4) to make the total volume of 400 μl. […] Then, 50 μl of a 0.2 casein unit/ml human plasmin is added and the mixture is incubated at a temperature of 37° C. for 4 minutes. Thereafter, the reaction is stopped by adding 50 μl of 50% acetic acid.
Thus, the concentration I50 (μmol) of the inhibitor sample, at which the absorbance is one half (i.e., 1/2) of that obtained in the absence of the inhibitor, is determined.

In a further assay the target is human urokinase (Homo sapiens, UniProt P00749). Nature of the assay: biochemical. The conditions noted are these: Table 2; S-2444 substrate, pH 8.8, 37° C.; read-out: Urokinase S-2444 (I50). The method, then: Determination of inhibition activity for S-2444 decomposition
An inhibitor sample is dissolved in a 0.05M Tris-hydrochloric acid buffer solution (pH=8.8) to make the total volume to 400 μl. To this solution, 50 μl of a 1 mM S-2444 solution is added and the mixture is incubated at a temperature of 37° C. for 5 minutes in a constant temperature bath. Then, 50 μl of a 500 unit/ml human urokinase is added and the mixture is incubated at a temperature of 37° C. for 5 minutes. Thereafter, 50 μl of 50% acetic acid is added to terminate the reaction. The absorbance of the p-nitroaniline formed in the reaction mixture is measured at 405 nm. Thus, the concentration I50 (μmol) of the inhibitor sample, at which the absorbance is one half (i.e., 1/2) of that obtained in the absence of the inhibitor sample, is determined.

Assay [3] addresses T2, bovine thrombin (Bos taurus, UniProt P00735). Description: Antithrombin activity: inhibition of S-2238 decomposition. The format is biochemical. The settings on record: Table 2; S-2238 substrate, pH 8.3, 37° C.; read-out: Thrombin S-2238 (I50). As for the experimental part: (ii) Determination of inhibition activity for S-2238 decomposition
An inhibitor sample is dissolved in a 0.05M Tris-hydrochloric acid buffer solution (pH=8.3) to make a total volume of 400 μl. To this solution, 50 μl of a 0.2 mM S-2238 solution is added and the mixture is incubated at a temperature of 37° C. for 5 minutes in a constant temperature bath. Then, 50 μl of a 0.2 unit/ml bovine thrombin solution is added thereto and the absorbance, at 405 nm, of the p-nitroaniline formed per minute is determined at a temperature of 37° C. by using the so-called initial velocity method. Thus, the concentration I50 (μmol) of the inhibitor sample at which the absorbance is one half (i.e., 1/2) of that obtained in the absence of the inhibitor sample, is determined.

The next assay concerns the target human plasma kallikrein (Homo sapiens, UniProt P03952). Description: Anti-plasma kallikrein activity: inhibition of S-2302 decomposition. It counts as biochemical. The conditions noted are these: Table 2; S-2302 substrate, pH 7.8, 37° C.; read-out: Plasma Kallikrein S-2302 (I50).
The target of assay [4] is T2, bovine thrombin. Nature of the assay: Antithrombin activity: inhibition of fibrin formation from fibrinogen. It counts as biochemical. As for the experimental part:
(i) Determination of inhibition activity against fibrin formation
An inhibitor sample is dissolved in a 0.18M borate-physiological salt buffer solution (pH=7.4) to make the total volume to 500 μl. To this solution, 400 μl of a 0.2% bovine fibrinogen solution and 100 μl of a 4 unit/ml bovine thrombin solution are added at a temperature of 37° C. in a constant temperature bath. Thus, a coagulation time is determined. The inhibitor concentration I50 (μmol), at which the coagulation time obtained in the absence of the inhibitor is extended twice, is determined.

The target of the next assay is T3, bovine trypsin (Bos taurus, UniProt P00760).
T3 sequence (P00760 24-246): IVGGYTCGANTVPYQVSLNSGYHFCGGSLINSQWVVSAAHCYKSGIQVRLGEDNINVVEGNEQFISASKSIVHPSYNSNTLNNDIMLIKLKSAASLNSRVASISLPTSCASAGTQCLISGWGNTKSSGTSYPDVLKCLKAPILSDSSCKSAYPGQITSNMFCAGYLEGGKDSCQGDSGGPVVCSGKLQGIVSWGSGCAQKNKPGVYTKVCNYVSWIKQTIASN
Description: Antitrypsin activity: inhibition of S-2238 decomposition. It counts as biochemical. The settings on record: Table 2; S-2238 substrate, pH 8.1, 37° C.; read-out: Trypsin S-2238 (I50).

[5] abbreviates: Table 2, concentration at which fibrin dissolution time is extended twice, pH 7.4, 37° C., read-out: Plasmin Fibrin (I50).

SMILES strings stand for the structures. Structures can show the parent of a compound that is named as a salt.

human plasma kallikrein, sequence (P03952 391-638 limits assumed): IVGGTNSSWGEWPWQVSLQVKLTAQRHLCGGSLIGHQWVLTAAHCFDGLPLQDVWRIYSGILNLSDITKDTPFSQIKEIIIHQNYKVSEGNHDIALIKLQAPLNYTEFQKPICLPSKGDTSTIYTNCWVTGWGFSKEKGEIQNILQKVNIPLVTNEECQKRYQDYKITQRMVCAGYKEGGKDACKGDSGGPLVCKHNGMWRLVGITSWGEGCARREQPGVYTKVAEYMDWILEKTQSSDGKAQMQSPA
human plasma kallikrein, sequence (P03952 20-390 partner limits assumed): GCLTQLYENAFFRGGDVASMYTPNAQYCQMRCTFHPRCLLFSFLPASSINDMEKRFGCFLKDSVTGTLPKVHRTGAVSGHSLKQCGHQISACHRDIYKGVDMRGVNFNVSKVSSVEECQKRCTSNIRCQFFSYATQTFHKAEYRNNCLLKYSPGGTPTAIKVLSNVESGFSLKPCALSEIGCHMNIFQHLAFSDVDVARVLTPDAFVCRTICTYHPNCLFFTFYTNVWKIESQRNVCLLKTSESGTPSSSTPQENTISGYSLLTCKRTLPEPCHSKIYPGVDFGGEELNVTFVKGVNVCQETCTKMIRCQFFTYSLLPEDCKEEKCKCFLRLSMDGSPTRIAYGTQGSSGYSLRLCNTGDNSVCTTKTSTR
T1 sequence (P00747 581-810 limits assumed): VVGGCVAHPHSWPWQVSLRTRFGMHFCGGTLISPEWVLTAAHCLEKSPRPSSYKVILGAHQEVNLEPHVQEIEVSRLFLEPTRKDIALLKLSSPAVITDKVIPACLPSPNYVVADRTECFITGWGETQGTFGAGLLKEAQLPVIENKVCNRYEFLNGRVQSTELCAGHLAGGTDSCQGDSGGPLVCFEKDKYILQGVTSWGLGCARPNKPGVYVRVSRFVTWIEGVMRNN
T1 sequence (P00747 97-580 partner limits assumed): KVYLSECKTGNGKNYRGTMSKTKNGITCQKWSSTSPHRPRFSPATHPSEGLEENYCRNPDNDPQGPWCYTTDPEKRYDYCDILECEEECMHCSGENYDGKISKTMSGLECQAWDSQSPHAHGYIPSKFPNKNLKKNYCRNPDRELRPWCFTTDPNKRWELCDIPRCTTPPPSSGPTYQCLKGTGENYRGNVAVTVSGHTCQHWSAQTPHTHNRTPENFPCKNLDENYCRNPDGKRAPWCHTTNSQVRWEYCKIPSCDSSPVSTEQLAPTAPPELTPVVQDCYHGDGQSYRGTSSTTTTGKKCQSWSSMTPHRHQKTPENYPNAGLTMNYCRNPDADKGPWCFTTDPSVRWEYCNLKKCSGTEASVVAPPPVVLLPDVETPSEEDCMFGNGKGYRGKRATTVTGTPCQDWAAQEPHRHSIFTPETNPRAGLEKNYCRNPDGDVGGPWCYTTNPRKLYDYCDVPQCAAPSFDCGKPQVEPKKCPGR
Description for bovine trypsin: Determination of inhibition activity against S-2238 decomposition
An inhibitor sample is dissolved in a 0.05M Tris-imidazole buffer solution (pH=8.1) and 125 μl of a 1 mM S-2238 solution is added to make the total volume to 1.20 ml. The mixture is incubated at a temperature of 37° C. for 5 minutes in a constant temperature bath. To this mixture, 0.05 ml of bovine trypsin is added and the absorbance, at 405 nm, of the p-nitroaniline formed per minute is determined at a temperature of 37° C. by using the so-called initial velocity method. Thus, the concentration I50 (μmol) of the inhibitor sample, at which the absorbance is one half (i.e., 1/2) of that obtained in the absence of the inhibitor sample, is determined.
Description for human plasma kallikrein: Determination of inhibition activity for S-2302 decomposition
An inhibitor sample is dissolved in a 0.05M Tris-hydrochloric acid buffer solution (pH=7.8) to make the total volume to 400 μl. To this solution, 50 μl of a 2 mM S-2302 solution is added and the mixture is incubated at a temperature of 37° C. for 5 minutes in a constant temperature bath. Then, 50 μl of a 0.12 unit/ml human plasma kallikrein is added and the mixture is incubated at a temperature of 37° C. for 5 minutes. Thereafter, 50 μl of 50% acetic acid is added to terminate the reaction. The absorbance of the p-nitroaniline formed in the reaction mixture is measured at 405 nm. Thus, the concentration I50 (μmol) of the inhibitor sample, at which the absorbance is one half (i.e., 1/2) of that obtained in the absence of the inhibitor sample, is determined.

For the molecule `NC[C@H]1CC[C@H](C(=O)NC(Cc2ccc([N+](=O)[O-])cc2)C(=O)Nc2ccc(C(=O)c3ccccc3)cc2)CC1` (mixture of isomers) [Compound No. 31, N-(trans-4-aminomethylcyclohexylcarbonyl)-4-nitro-D,L-phenylalanine 4-benzoylanilide hydrochloride], the IC50 on human plasmin [1] is 3300 nM; at human plasmin [2] it was 14000 nM; on human urokinase it was 3300 nM; on bovine thrombin [3], over 100000 nM; on human plasma kallikrein, 6000 nM; on bovine thrombin [4] it was over 100000 nM.

As to `CC(=O)c1ccc(NC(=O)[C@H](Cc2ccc(OCc3ccc(Cl)cc3)cc2)NC(=O)[C@H]2CC[C@H](CN)CC2)cc1` [Compound No. 5, N-(trans-4-aminomethylcyclohexylcarbonyl)-4-(4-chlorobenzyloxy)-L-phenylalanine 4-acetylanilide], the IC50 on bovine trypsin is 840 nM; on human plasmin [1] (setting [5]), 390 nM; at human plasmin [2] (read-out: Plasmin S-2251 (I50)), 900 nM; at human urokinase, 25000 nM; on human plasma kallikrein it was 460 nM.

Take `CC(=O)c1ccc(NC(=O)[C@H](Cc2ccc(OCc3ccc(F)cc3)cc2)NC(=O)[C@H]2CC[C@H](CN)CC2)cc1` [Compound No. 12]: the IC50 on human plasmin [1] (setting [5]) amounted to 410 nM; at human plasmin [2] (read-out: Plasmin S-2251 (I50)), 790 nM; on human urokinase it was 11000 nM; at human plasma kallikrein it was 840 nM.

As for `NC[C@H]1CC[C@H](C(=O)N[C@@H](Cc2ccc(OCc3ccccc3)cc2)C(=O)Nc2cccnc2)CC1` [Compound No. 16, N-(trans-4-aminomethylcyclohexylcarbonyl)-4-benzyloxy-L-phenylalanine 3-pyridylamide dihydrochloride], the IC50 at bovine thrombin [3] is over 400000 nM; on bovine thrombin [4] it was over 500000 nM.

Turning to `NCc1ccc(C(=O)N[C@@H](Cc2ccc(OCc3ccccc3)cc2)C(=O)NC2CCCCC2)cc1` [Compound No. 114, N-(4-aminomethylbenzoyl)-4-benzyloxy-L-phenylalanine cyclohexylamide hydrochloride], the IC50 is 9500 nM on bovine trypsin; 1400 nM at human plasmin [1] (setting [5]); 3200 nM on human plasmin [2] (read-out: Plasmin S-2251 (I50)); over 100000 nM at human urokinase; 40000 nM at human plasma kallikrein.

As to `CC(=O)c1ccc(NC(=O)[C@H](Cc2ccc(OCc3ccc(Br)cc3)cc2)NC(=O)[C@H]2CC[C@H](CN)CC2)cc1` [compound 17], the IC50 worked out at 280 nM at human plasmin [1] (setting [5]), 1500 nM at human plasmin [2] (read-out: Plasmin S-2251 (I50)), 23000 nM on human urokinase and 560 nM on human plasma kallikrein.

For the molecule `NC[C@H]1CC[C@H](C(=O)N[C@@H](Cc2ccc(OCc3ccccc3)cc2)C(=O)Nc2ccc(C(=O)c3ccccc3)cc2)CC1` [compound 19], the IC50 at human plasmin [1] (setting [5]) was found to be 280 nM; at human plasmin [2] (read-out: Plasmin S-2251 (I50)) it was 1300 nM; on human urokinase it was 19000 nM; at human plasma kallikrein, 1200 nM.

For the molecule `CC(=O)c1ccc(NC(=O)[C@H](Cc2ccc(OCc3ccc(Cl)c(Cl)c3)cc2)NC(=O)[C@H]2CC[C@H](CN)CC2)cc1` [compound 45], the IC50 at bovine trypsin is 840 nM; on human plasmin [1] (setting [5]), 91 nM; at human plasmin [2] (read-out: Plasmin S-2251 (I50)), 580 nM; at human urokinase, 70000 nM; at human plasma kallikrein it was 460 nM.

Consider `Cc1ccc(NC(=O)[C@H](Cc2ccc(OCc3ccccc3)cc2)NC(=O)c2ccc(CN)cc2)cc1` [compound 63], for which the IC50 at bovine trypsin was 10000 nM; on human plasmin [1] (setting [5]) it was 1400 nM; on human plasmin [2] (read-out: Plasmin S-2251 (I50)), 5600 nM; at human urokinase, over 100000 nM; at human plasma kallikrein it was 24000 nM; at bovine thrombin [4] it was over 50000 nM.

In the case of `Cc1ccc(NC(=O)[C@H](Cc2ccc(OCc3ccccc3)cc2)NC(=O)c2ccc(CN)cc2)cc1C` [compound 65], the IC50 on bovine trypsin is 5000 nM; at human plasmin [1] (setting [5]) it was 1000 nM; on human plasmin [2] (read-out: Plasmin S-2251 (I50)) it was 2900 nM; on human urokinase it was over 200000 nM; on human plasma kallikrein, 22000 nM; against bovine thrombin [4] it was over 50000 nM.

Regarding `NC[C@H]1CC[C@H](C(=O)N[C@@H](Cc2ccc(OCc3cccc(Cl)c3)cc2)C(=O)Nc2ccc(C(=O)c3ccccc3)cc2)CC1` [compound 67], the IC50 on bovine trypsin was 440 nM; on human plasmin [1] (setting [5]) it was 140 nM; at human plasmin [2] (read-out: Plasmin S-2251 (I50)), 1100 nM; at human urokinase, 40000 nM; on human plasma kallikrein, 1200 nM; against bovine thrombin [4], over 20000 nM.

As for `CC1CCC(NC(=O)C(Cc2ccc(OCc3cccc(Cl)c3)cc2)NC(=O)c2ccc(CN)cc2)CC1C` (stereo not drawn) [compound 103], the IC50 was 1200 nM on bovine trypsin; 120 nM at human plasmin [1] (setting [5]); 780 nM on human plasmin [2] (read-out: Plasmin S-2251 (I50)); over 100000 nM at human urokinase; 18000 nM on human plasma kallikrein.

Turning to `CC1CCC(NC(=O)C(Cc2ccc(OCc3ccc(F)cc3)cc2)NC(=O)c2ccc(CN)cc2)CC1C` (stereo not drawn) [compound 106], the IC50 on bovine trypsin is 3000 nM; on human plasmin [1] (setting [5]) it was 540 nM; at human plasmin [2] (read-out: Plasmin S-2251 (I50)), 1400 nM; on human urokinase, over 150000 nM; on human plasma kallikrein it was 19000 nM; against bovine thrombin [4] it was over 50000 nM.

On to `NCc1ccc(C(=O)NC(Cc2ccc(OCc3ccccc3)cc2)C(=O)NCc2ccc(F)cc2)cc1` (stereo not drawn) [compound 113], for which the IC50 on bovine trypsin is 18000 nM; on human plasmin [1] (setting [5]), 1700 nM; on human plasmin [2] (read-out: Plasmin S-2251 (I50)) it was 8300 nM; at human urokinase, over 20000 nM; at human plasma kallikrein, over 25000 nM; at bovine thrombin [4] it was over 50000 nM.

As for `CC(=O)c1ccc(NC(=O)[C@H](Cc2ccc(OCc3cc(Cl)ccc3Cl)cc2)NC(=O)[C@H]2CC[C@H](CN)CC2)cc1` [compound 125], the IC50 is 800 nM on bovine trypsin; 130 nM on human plasmin [1] (setting [5]); 490 nM on human plasmin [2] (read-out: Plasmin S-2251 (I50)); 47000 nM at human urokinase; 380 nM on human plasma kallikrein.

`N=C(N)c1ccc(NC(=O)[C@H](Cc2ccc(OCc3ccccc3)cc2)NC(=O)[C@H]2CC[C@H](CN)CC2)cc1` [compound 126]: the IC50 on bovine trypsin is 450 nM; on human plasmin [1] (setting [5]), 830 nM; on human plasmin [2] (read-out: Plasmin S-2251 (I50)) it was 1500 nM; on human urokinase, 6300 nM; on human plasma kallikrein, 3500 nM; on bovine thrombin [4], over 200000 nM.

In the case of `CC(=O)c1ccc(NC(=O)[C@H](Cc2ccc(OC(=O)OCc3ccccc3Br)cc2)NC(=O)[C@H]2CC[C@H](CN)CC2)cc1` [compound 144], the IC50 at bovine trypsin was 950 nM; on human plasmin [1] (setting [5]), 51 nM; on human plasmin [2] (read-out: Plasmin S-2251 (I50)) it was 230 nM; on human urokinase, 43000 nM; on human plasma kallikrein, 370 nM; at bovine thrombin [4], over 50000 nM.
